One data set concerns the target Jack bean urease (Canavalia ensiformis, UniProt P07374). The data set is described as follows: biochemical. As for the experimental part:
All the synthesized derivatives were subjected to anti-urease activity. In preliminary screening, all compounds were evaluated at 1 mM concentrations, and percentage inhibition was used as an indicator of activity. IC50 values were calculated for the scaffolds having percentage inhibition higher than 50%.
Indophenol method was used to perform the urease inhibition. 10 µL of enzyme, 40 µL buffer, 10 µL of assay moiety, 40-µL each of phenol-reagents, and alkali reagent were present in the assay mixture. Firstly, incubation of assay compounds and enzyme was done in assay buffer at 37 °C for 30 min. Then, alkaline reagents and 40 µL of phenol were mixed to quench the mixture. 96 well plates were used in enzyme assay and for reading of absorbance at 625 nm a microplate reader was helpful. The experiment was done in triplicate and PRISM 4.0 was used to get IC50, positive control was thiourea.

The values below come from publication PMC8460821, “Bio-oriented synthesis of new sulphadiazine derivatives for urease inhibition and their pharmacokinetic analysis” (Scientific Reports, 2021).

Like-named read-outs stand apart in the source and are kept apart here.

Chain of Jack bean urease (P07374 whole entry, looked up): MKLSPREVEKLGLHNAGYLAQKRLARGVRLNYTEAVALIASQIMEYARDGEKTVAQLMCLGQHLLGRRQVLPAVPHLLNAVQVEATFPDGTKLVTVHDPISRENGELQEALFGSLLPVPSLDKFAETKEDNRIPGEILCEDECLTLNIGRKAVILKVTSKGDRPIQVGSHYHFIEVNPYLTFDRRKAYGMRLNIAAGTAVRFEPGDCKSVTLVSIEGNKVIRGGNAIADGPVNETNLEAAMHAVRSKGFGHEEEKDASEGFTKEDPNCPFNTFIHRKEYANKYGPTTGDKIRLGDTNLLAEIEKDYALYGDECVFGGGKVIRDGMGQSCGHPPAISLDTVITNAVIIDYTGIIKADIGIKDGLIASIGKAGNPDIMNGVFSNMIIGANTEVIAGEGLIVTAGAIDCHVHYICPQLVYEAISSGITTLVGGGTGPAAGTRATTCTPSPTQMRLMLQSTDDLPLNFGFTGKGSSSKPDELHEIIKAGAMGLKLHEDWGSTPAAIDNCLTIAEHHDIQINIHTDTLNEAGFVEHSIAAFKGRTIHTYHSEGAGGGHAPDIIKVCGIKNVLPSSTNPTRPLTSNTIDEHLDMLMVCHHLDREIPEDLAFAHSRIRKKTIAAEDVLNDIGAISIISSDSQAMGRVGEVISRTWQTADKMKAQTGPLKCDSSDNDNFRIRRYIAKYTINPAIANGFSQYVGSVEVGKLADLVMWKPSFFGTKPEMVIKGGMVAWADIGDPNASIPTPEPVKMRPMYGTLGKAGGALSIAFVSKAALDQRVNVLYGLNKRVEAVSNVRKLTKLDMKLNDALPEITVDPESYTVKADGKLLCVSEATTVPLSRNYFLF

Regarding `COc1ccc(C=Nc2ccc(S(=O)(=O)Nc3ncccn3)cc2)cc1` [3h, 4-(4-Methoxybenzylideneamino)-N-(pyrimidin-2-yl)benzenesulfonamide], the melting point lay within 287 to 289 °C. This compound also registered an IC50 against Jack bean urease of 45.6 ± 0.56 µM. For `O=S(=O)(Nc1ncccn1)c1ccc(N=Cc2ccc(Br)cc2Br)cc1` [3s, 4-(2,4-Dibromobenzylideneamino)-N-(pyrimidin-2-yl)benzenesulfonamide] the same measures were 273 to 275 °C and 6.09 ± 0.45 µM. Regarding `O=S(=O)(Nc1ncccn1)c1ccc(N=Cc2ccc(Cl)cc2Cl)cc1` [3q, 4-(2,4-Dichlorobenzylideneamino)-N-(pyrimidin-2-yl)benzenesulfonamide], the melting point was in the range of 291 to 293 °C. On Jack bean urease, this compound registered a concentration for half-maximal inhibition (IC50) of 4.05 ± 1.1 µM.

In turn, `Cc1ccc(C=Nc2ccc(S(=O)(=O)Nc3ncccn3)cc2)c(O)c1` [3u, 4-(2-Hydroxy-4-methylbenzylideneamino)-N-(pyrimidin-2-yl)benzenesulfonamide] returned a melting point of 279 to 281 °C.

As to `O=S(=O)(Nc1ncccn1)c1ccc(N=Cc2ccc(Cl)cc2O)cc1` [3i, 4-(4-Chloro-2-hydroxybenzylideneamino)-N-(pyrimidin-2-yl)benzenesulfonamide], the melting point was 285 to 287 °C. Also, half-maximal inhibition against Jack bean urease (IC50) was put at 25.56 ± 0.22 µM. Compound `O=S(=O)(Nc1ncccn1)c1ccc(N=Cc2ccc(F)cc2Cl)cc1` [3m, 4-(2-Chloro-4-fluorobenzylideneamino)-N-(pyrimidin-2-yl)benzenesulfonamide] yielded a melting point of 277 to 279 °C. On Jack bean urease, the half-maximal inhibitory concentration (IC50) was determined as 15.7 ± 2.45 µM. Compound `CN(C)c1ccc(C=Nc2ccc(S(=O)(=O)Nc3ncccn3)cc2)cc1` [3f, 4-(4-(Dimethylamino)benzylideneamino)-N-(pyrimidin-2-yl)benzenesulfonamide] yielded a melting point of 275 to 277 °C. At Jack bean urease, this compound registered an IC50 of 13.14 ± 0.02 µM. Consider `O=S(=O)(Nc1ncccn1)c1ccc(N=Cc2ccc(F)cc2F)cc1` [3r, 4-(2,4-Difluorobenzylideneamino)-N-(pyrimidin-2-yl)benzenesulfonamide], for which the melting point is 279 to 281 °C. In addition, the IC50 at Jack bean urease worked out at 13.1 ± 2.55 µM. The compound `O=S(=O)(Nc1ncccn1)c1ccc(N=Cc2ccc(F)cc2O)cc1` [3j, 4-(4-Fluoro-2-hydroxybenzylideneamino)-N-(pyrimidin-2-yl)benzenesulfonamide] displayed a melting point of 279 to 281 °C. On Jack bean urease, this compound displayed an IC50 of 19 ± 1.23 µM. Taken in the same sequence, the figures for `O=S(=O)(Nc1ncccn1)c1ccc(N=Cc2ccc(Cl)cc2F)cc1` [3p, 4-(4-Chloro-2-fluorobenzylideneamino)-N-(pyrimidin-2-yl)benzenesulfonamide] were 275 to 277 °C and 17.07 ± 0.02 µM. `O=S(=O)(Nc1ncccn1)c1ccc(N=Cc2ccc(Br)cc2F)cc1` [3n, 4-(4-Bromo-2-fluorobenzylideneamino)-N-(pyrimidin-2-yl)benzenesulfonamide] yielded a melting point of 291 to 293 °C. Besides, 18.2 ± 1.78 µM corresponded to half-maximal inhibition on Jack bean urease (IC50). With `O=S(=O)(Nc1ncccn1)c1ccc(N=Cc2ccc(F)cc2Br)cc1` [3l, 4-(2-Bromo-4-fluorobenzylideneamino)-N-(pyrimidin-2-yl)benzenesulfonamide], the melting point fell in the range of 285 to 287 °C. On Jack bean urease, this compound returned an IC50 of 2.21 ± 0.45 µM. Further, on Jack bean urease (ratio of urease IC50 values), the “Potency relative to standard thiourea” value is recorded as 10 times.

`O=S(=O)(Nc1ncccn1)c1ccc(N=Cc2ccc(Cl)cc2Br)cc1` [3o, 4-(2-Bromo-4-chlorobenzylideneamino)-N-(pyrimidin-2-yl)benzenesulfonamide] showed a melting point of 277 to 279 °C. Moreover, the IC50 against Jack bean urease was determined as 5.04 ± 0.4 µM. On to `O=S(=O)(Nc1ncccn1)c1ccc(N=Cc2ccccc2O)cc1` [3b, 4-(2-Hydroxybenzylideneamino)-N-(pyrimidin-2-yl)benzenesulfonamide], for which, on Jack bean urease, the IC50 was found to be 3.29 ± 2 µM. In the case of `O=S(=O)(Nc1ncccn1)c1ccc(N=Cc2cc(Br)ccc2O)cc1` [3c, 4-(5-Bromo-2-hydroxybenzylideneamino)-N-(pyrimidin-2-yl)benzenesulfonamide], on Jack bean urease (incubation 37 °C 30 min, absorbance 625 nm, triplicate, positive control thiourea), the IC50 urease inhibition result is reported as “inactivation of the compound”. Compound `O=S(=O)(Nc1ncccn1)c1ccc(N=Cc2ccccc2)cc1` [3a, 4-(Benzylideneamino)-N-(pyrimidin-2-yl)benzenesulfonamide] came in with a melting point of 269 to 271 °C. The compound further came in with an IC50 at Jack bean urease of 2.32 ± 0.54 µM. As for `NC(N)=S` [thiourea, reference compound], the 50% inhibitory concentration (IC50) on Jack bean urease (incubation 37 °C 30 min, absorbance 625 nm, triplicate, positive control thiourea, read-out: IC50 urease inhibition) came to 20 ± 2.06 µM. Regarding `O=S(=O)(Nc1ncccn1)c1ccc(N=Cc2ccc(O)cc2O)cc1` [3k, 4-(2,4-Dihydroxybenzylideneamino)-N-(pyrimidin-2-yl)benzenesulfonamide], the melting point lay within 280 to 282 °C. Also, inhibition on Jack bean urease was half-maximal at 12.1 ± 2.43 µM (IC50).

Regarding `O=[N+]([O-])c1ccc(C=Nc2ccc(S(=O)(=O)Nc3ncccn3)cc2)cc1` [3e, 4-(4-Nitrobenzylideneamino)-N-(pyrimidin-2-yl)benzenesulfonamide], the melting point was 274 to 276 °C. For the same compound, the IC50 against Jack bean urease is 4.15 ± 0.77 µM. The compound `O=S(=O)(Nc1ncccn1)c1ccc(N=Cc2ccc(F)cc2)cc1` [3g, 4-(4-Fluorobenzylideneamino)-N-(pyrimidin-2-yl)benzenesulfonamide] gave a melting point of 283 to 285 °C. Further, the IC50 on Jack bean urease was 10.1 ± 0.45 µM. `COc1ccc(C=Nc2ccc(S(=O)(=O)Nc3ncccn3)cc2)c(O)c1` [3d, 4-(2-Hydroxy-4-methoxybenzylideneamino)-N-(pyrimidin-2-yl)benzenesulfonamide]: the melting point was 266 to 267 °C. As to `O=S(=O)(Nc1ncccn1)c1ccc(N=Cc2ccc(O)cc2)cc1` [3t, 4-(4-Hydroxybenzylideneamino)-N-(pyrimidin-2-yl)benzenesulfonamide], the melting point lay in the range of 271 to 273 °C. Further, the IC50 against Jack bean urease was 8.9 ± 2.45 µM.

A word on the IC50: it is the concentration that inhibits the measured activity by half. For orientation: melting point means the temperature, or range, at which the solid turns liquid.
